What was measured:
[1] = target: T1, AasC (CT776), Chlamydia acyl-ACP synthase (Chlamydia trachomatis, UniProt O84781); test: […]-phospholipid formation from […]-palmitate in E. coli lysate, TLC; type: biochemical; details: 5 µM [14C]C16-OH, 10 mM ATP, 20 mM MgCl2, pH 7.4, 30 °C; E. coli acyl carrier and acyltransferase in lysate
T1 construct: gene aas; full-length, pET28a, expressed in E. coli BL21(DE3), crude lysate
T1 sequence (O84781 1-537): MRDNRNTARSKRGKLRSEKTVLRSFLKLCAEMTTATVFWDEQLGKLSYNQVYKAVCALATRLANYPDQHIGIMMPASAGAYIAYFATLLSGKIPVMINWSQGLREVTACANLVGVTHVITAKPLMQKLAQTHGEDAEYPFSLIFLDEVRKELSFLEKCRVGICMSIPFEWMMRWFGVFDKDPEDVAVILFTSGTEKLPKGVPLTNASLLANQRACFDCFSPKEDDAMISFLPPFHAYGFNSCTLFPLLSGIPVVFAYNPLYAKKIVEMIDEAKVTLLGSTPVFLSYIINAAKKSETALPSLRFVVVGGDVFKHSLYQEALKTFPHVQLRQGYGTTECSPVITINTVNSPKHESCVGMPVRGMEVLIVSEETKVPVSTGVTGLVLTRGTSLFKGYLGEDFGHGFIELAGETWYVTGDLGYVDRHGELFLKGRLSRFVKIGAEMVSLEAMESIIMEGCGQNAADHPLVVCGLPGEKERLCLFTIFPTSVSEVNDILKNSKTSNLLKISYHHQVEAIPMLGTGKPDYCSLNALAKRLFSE

[2] = target: T2, hACSL6-iso2 (human long-chain acyl-CoA synthetase 6) (Homo sapiens, UniProt Q9UKU0); test: competition with […]C18:1-CoA formation; type: biochemical; details: 1 µM [14C]C18:1-OH, ATP, CoASH, 0.15 µM enzyme, 30 °C; competing substrate
T2 construct: gene ACSL6; hexahistidine fusion, Ni-NTA partially purified, CHAPS lysis
T2 sequence (Q9UKU0 1-697): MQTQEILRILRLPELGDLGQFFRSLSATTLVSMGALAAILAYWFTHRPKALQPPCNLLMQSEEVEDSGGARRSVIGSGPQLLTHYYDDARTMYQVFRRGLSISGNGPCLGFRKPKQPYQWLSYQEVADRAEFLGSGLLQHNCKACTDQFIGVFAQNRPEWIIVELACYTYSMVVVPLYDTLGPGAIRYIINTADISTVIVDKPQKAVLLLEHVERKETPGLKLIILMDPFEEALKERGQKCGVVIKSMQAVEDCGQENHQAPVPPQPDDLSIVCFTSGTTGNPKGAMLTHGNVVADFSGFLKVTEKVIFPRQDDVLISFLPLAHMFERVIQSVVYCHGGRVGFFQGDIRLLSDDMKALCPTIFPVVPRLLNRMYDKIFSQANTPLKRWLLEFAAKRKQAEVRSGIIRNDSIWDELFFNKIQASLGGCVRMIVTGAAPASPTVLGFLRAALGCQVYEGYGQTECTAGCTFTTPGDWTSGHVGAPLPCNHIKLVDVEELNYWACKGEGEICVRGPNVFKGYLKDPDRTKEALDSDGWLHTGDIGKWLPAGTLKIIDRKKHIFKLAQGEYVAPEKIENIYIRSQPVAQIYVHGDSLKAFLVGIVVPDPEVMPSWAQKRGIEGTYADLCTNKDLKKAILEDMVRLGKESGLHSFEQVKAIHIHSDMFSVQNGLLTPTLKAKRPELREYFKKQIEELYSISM

[3] = target: T3, CT775 (LpaT), lysophospholipid acyltransferase (Chlamydia trachomatis, UniProt O84780); test: NBD-PC formation, TLC, bee venom PLA2 digestion, microsomes; type: biochemical; details: 1 µM NBD-C16-CoA, 10 µM 1-C16-GPC, pH 7.4, 30 °C; acyl acceptor
T3 construct: gene CT_775; expressed in E. coli BL21(DE3), membrane fraction (microsomes); cloning reported previously
T3 sequence (O84780 1-253): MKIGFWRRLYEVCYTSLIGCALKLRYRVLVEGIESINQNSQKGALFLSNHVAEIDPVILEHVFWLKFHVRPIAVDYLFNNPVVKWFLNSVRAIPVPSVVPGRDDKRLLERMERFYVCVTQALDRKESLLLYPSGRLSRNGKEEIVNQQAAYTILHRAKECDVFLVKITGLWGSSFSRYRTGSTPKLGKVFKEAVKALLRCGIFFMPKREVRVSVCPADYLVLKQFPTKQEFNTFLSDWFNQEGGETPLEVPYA

[4] = target: T4, CT699 (PsdD), PS-decarboxylase (Chlamydia trachomatis, UniProt P0CD79); test: conversion of NBD-PS to NBD-PE, TLC fluorescence, E. coli lysate vs vector control; type: cell-based; details: 2 µM NBD-PS, Tris pH 7.4, 37 °C; labelled compound
T4 construct: gene psd; full-length, pET28a, expressed in E. coli BL21(DE3), lysate
T4 sequence (P0CD79 1-259): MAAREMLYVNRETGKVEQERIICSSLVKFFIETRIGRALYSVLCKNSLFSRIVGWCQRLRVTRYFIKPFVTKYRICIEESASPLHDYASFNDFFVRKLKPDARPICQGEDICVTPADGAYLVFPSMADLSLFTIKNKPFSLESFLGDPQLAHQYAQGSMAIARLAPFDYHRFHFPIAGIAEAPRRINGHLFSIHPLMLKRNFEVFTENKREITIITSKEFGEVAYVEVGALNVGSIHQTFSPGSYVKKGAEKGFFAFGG
T4 sequence (P0CD79 260-301): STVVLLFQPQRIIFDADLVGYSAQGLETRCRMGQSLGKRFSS

[5] = target: T1, AasC (CT776), Chlamydia acyl-ACP synthase; test: […]-phospholipid formation from […]-palmitate in E. coli lysate, TLC; type: biochemical; details: 5 µM [14C]C16-OH, 10 mM ATP, 20 mM MgCl2, pH 7.4, 30 °C; E. coli acyl carrier and acyltransferase in lysate; remark: listed apart in the source
human LPCAT1 (hLPCAT1) = target: T5, human LPCAT1 (hLPCAT1) (Homo sapiens, UniProt Q8NF37); test: competition with NBD-C16-CoA acylation of 1-C16-GPC, TLC fluorescence, microsomes; type: biochemical; details: 0.5 µM NBD-C16-CoA, 20 µM 1-C16-GPC, 0.25-1.0 µM competitor, 30 °C; competing acyl donor
T5 construct: expressed in E. coli BL21(DE3), membrane fraction; cloning reported previously
T5 sequence (Q8NF37 1-534): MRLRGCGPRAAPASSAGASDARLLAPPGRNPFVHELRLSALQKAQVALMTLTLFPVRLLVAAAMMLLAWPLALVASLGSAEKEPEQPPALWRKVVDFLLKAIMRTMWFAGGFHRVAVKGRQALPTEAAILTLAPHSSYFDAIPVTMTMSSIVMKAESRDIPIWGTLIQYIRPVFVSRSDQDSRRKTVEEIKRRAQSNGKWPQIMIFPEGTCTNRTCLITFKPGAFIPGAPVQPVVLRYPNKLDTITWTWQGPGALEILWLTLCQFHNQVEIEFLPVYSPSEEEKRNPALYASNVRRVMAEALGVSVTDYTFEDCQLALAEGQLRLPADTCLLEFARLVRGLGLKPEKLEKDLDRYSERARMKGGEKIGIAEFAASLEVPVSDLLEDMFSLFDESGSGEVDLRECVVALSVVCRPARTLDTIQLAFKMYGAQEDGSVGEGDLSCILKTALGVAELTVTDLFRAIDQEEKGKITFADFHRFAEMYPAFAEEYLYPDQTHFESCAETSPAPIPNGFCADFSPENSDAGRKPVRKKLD

[6] = target: T2, hACSL6-iso2 (human long-chain acyl-CoA synthetase 6); test: acyl-CoA / acyl-AMP formation; type: biochemical; details: with fatty acid and CoASH

Structure (SMILES): CN(CCOc1ccc(CC2SC(=O)NC2=O)cc1)c1ccccn1 (stereo not drawn) [rosiglitazone G]
- % inhibition at 100 μM [1]: both drugs had a significant inhibitory effect on FA incorporation in the presence of the AasC

Structure (SMILES): CC(C)CCCCCCCCCCCCCCCC(=O)O [MeC18-OH]
- competition at 10 μM [2]: this long-chain odd fatty acid was as good a substrate for hACSL6 as C18:1-OH

Structure (SMILES): CCCCCCCCCCCCCCCC(=O)OC[C@@H](O)COP(=O)([O-])OCC[N+](C)(C)C [1-C16-sn-glycerol-3-P-choline, 1-palmitoyl-2-hydroxy-sn-glycero-3-phosphocholine]
- NBD-PC formation, TLC, bee venom PLA2 digestion, microsomes [3]: NBD-acyl group had been transferred by CT775 to the sn2 position of the 1-C16-GPC isomer

Structure (SMILES): CCCCCCCCCCCCCCCC(=O)OC[C@H](COP(=O)(O)OC[C@H](N)C(=O)O)OC(=O)CCCCCNc1ccc([N+](=O)[O-])c2nonc12 [NBD-PS, 1-palmitoyl-2-(6-[(7-nitro-2-1,3-benzoxadiazol-4-yl)amino]hexanoyl)-sn-glycero-3-phosphoserine]
- conversion of NBD-PS to NBD-PE, TLC fluorescence, E. coli lysate vs vector contr [4]: CT699 was active and able to convert fluorescent NBD-PS into NBD-PE

Structure (SMILES): CCC/C=C/C/C=C/C=C/C=N/NN=O [triacsin C]
- % inhibition at 5 μM [5]: both drugs had a significant inhibitory effect on FA incorporation in the presence of the AasC

Structure (SMILES): CCCCCCCC/C=C\CCCCCCCC(=O)SCCNC(=O)CCNC(=O)[C@H](O)C(C)(C)COP(=O)(O)OP(=O)(O)OC[C@H]1O[C@@H](n2cnc3c(N)ncnc32)[C@H](O)[C@@H]1OP(=O)(O)O [C18:1-CoA]
- % of activity without competitor (human LPCAT1 (hLPCAT1)): MeC18-CoA was a stronger competitor than C18:1-CoA

Structure (SMILES): Nc1ncnc2c1ncn2[C@@H]1O[C@H](COP(=O)(O)OP(=O)(O)OP(=O)(O)O)[C@@H](O)[C@H]1O [ATP]
- acyl-CoA / acyl-AMP formation [6]: In the presence of both ATP and CoASH, acyl-CoA is formed from fatty acids

Structure (SMILES): CC(C)CCCCCCCCCC(=O)O [MeC12-OH]
- competition at 10 μM [2]: The shorter chain MeC12-OH also competed but not as efficiently as MeC18-OH

Structure (SMILES): CC(C)CCCCCCCCCCCCCCCC(=O)SCCNC(=O)CCNC(=O)[C@H](O)C(C)(C)COP(=O)(O)OP(=O)(O)OC[C@H]1O[C@@H](n2cnc3c(N)ncnc32)[C@H](O)[C@@H]1OP(=O)(O)O [MeC18-CoA]
- % of activity without competitor (human LPCAT1 (hLPCAT1)): NBD-C16-CoA to 1-acyl-GPC by hLPCAT1 was strongly reduced in the presence of MeC18-CoA

From PMC5693948, “Phosphatidylserine decarboxylase CT699, lysophospholipid acyltransferase CT775, and acyl-ACP synthase CT776 provide membrane lipid diversity to Chlamydia trachomatis” (Scientific Reports, 2017)
